Assay [1] can be described thus: Selectivity index was determined by the ratio for IC50 of rat liver DHFR to the IC50 of Toxoplasma gondii DHFR; Range: 55-65.
Assay [2] concerns the target T1, Dihydrofolate reductase (Rattus norvegicus, UniProt Q920D2).
T1 sequence (Q920D2 whole entry): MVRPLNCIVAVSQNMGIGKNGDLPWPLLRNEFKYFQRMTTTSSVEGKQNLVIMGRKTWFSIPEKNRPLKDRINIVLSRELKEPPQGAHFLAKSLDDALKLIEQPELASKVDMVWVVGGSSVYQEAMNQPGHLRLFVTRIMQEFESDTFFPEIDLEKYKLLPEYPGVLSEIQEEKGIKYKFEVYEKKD
Kind of assay: Concentration required to inhibit the rat liver Dihydrofolate reductase by 50% was determined; Range: 1100-1500.

Assay [3] addresses T2, Dihydrofolate reductase (Pneumocystis carinii, UniProt P16184).
T2 sequence (P16184 whole entry): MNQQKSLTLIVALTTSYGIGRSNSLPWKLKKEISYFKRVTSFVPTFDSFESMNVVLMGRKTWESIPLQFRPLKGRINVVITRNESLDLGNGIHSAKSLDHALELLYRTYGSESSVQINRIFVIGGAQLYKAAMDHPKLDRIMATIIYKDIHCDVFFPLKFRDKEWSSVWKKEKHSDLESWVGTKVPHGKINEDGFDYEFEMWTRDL
Kind of assay: Concentration required to inhibit the Pneumocystis carinii Dihydrofolate reductase by 50% was determined; Range: 9.8-12.

The nature of assay [4]: Selectivity index was determined by the ratio for IC50 of rat liver DHFR to the IC50 of Mycobacterium avium DHFR; Range: 140-230.
Assay [5] addresses T3, Dihydrofolate reductase (Mycobacterium avium, UniProt O30463).
T3 sequence (O30463 whole entry): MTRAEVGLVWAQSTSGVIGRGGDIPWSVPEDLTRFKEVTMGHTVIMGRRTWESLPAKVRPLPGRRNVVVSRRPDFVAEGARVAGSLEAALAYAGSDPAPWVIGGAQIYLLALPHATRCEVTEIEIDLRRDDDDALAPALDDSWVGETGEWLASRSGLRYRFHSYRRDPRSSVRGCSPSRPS
Description: Concentration required to inhibit the Mycobacterium avium Dihydrofolate reductase by 50% was determined; Range: 6.5-8.0.

Assay [6] in a line: Selectivity index was determined by the ratio for IC50 of rat liver DHFR to the IC50 of Pneumocystis carinii DHFR; Range: 80-150.
Assay [7] has as its target T4, Bifunctional dihydrofolate reductase-thymidylate synthase (Toxoplasma gondii, UniProt Q07422).
T4 sequence (Q07422 whole entry): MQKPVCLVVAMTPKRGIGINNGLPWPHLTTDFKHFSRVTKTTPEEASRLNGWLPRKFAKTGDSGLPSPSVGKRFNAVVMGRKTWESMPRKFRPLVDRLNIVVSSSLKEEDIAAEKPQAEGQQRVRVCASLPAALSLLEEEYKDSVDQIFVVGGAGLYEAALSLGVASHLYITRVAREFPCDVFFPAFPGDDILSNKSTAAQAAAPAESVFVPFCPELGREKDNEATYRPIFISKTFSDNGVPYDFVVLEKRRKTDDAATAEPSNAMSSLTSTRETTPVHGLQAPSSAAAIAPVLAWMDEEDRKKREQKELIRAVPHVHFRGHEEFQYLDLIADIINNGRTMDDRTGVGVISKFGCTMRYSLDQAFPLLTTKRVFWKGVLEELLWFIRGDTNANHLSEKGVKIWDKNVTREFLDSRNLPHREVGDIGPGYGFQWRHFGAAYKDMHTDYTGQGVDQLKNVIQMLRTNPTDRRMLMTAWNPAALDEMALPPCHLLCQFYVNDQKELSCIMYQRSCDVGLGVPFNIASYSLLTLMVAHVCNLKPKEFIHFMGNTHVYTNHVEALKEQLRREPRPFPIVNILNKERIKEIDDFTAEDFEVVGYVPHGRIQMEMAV
Description: Concentration required to inhibit the Toxoplasma gondii Dihydrofolate reductase by 50% was determined; Range: 20-23.

For assay [8], the target named is T1, Dihydrofolate reductase. Kind of assay: Concentration required to inhibit the rat liver Dihydrofolate reductase by 50% was determined; Range: 250-300.
Assay [9] concerns the target T2, Dihydrofolate reductase. Kind of assay: Concentration required to inhibit the Pneumocystis carinii Dihydrofolate reductase by 50% was determined; Range: 18-25.
The nature of assay [10]: Selectivity index was determined by the ratio for IC50 of rat liver DHFR to the IC50 of Toxoplasma gondii DHFR; Range: 10-25.
A short description of assay [11]: Selectivity index was determined by the ratio for IC50 of rat liver DHFR to the IC50 of Mycobacterium avium DHFR; Range: 23-48.
In assay [12] the target is T3, Dihydrofolate reductase.
Description: Concentration required to inhibit the Mycobacterium avium Dihydrofolate reductase by 50% was determined; Range: 6.2-11
The target in assay [13] is T4, Bifunctional dihydrofolate reductase-thymidylate synthase.
Description: Concentration required to inhibit the Toxoplasma gondii Dihydrofolate reductase by 50% was determined; Range: 12-24
Assay [14] can be described thus: Selectivity index was determined by the ratio for IC50 of rat liver DHFR to the IC50 of Pneumocystis carinii DHFR; Range: 10-17.
For assay [15], the target named is T3, Dihydrofolate reductase. The source holds these as a separate data set.
Assay [16] deals with T2, Dihydrofolate reductase.
Description: Concentration required to inhibit the Pneumocystis carinii Dihydrofolate reductase by 50% was determined; Range: 0.92-1.3
Assay [17] has as its target T4, Bifunctional dihydrofolate reductase-thymidylate synthase. This is another data set of the same source.
Description: Concentration required to inhibit the Toxoplasma gondii Dihydrofolate reductase by 50% was determined; Range: 8.9-11
Assay [18] deals with T1, Dihydrofolate reductase.
In assay [19] the target is T1, Dihydrofolate reductase. Kind of assay: Concentration required to inhibit the rat liver Dihydrofolate reductase by 50% was determined; […].
Assay [20] has as its target T2, Dihydrofolate reductase. Kind of assay: Concentration required to inhibit the Pneumocystis carinii Dihydrofolate reductase by 50% was determined; Range: 58-110.
The nature of assay [21]: Selectivity index was determined by the ratio for IC50 of rat liver DHFR to the IC50 of Mycobacterium avium DHFR; […].
Assay [22] deals with T4, Bifunctional dihydrofolate reductase-thymidylate synthase. Description: Concentration required to inhibit the Toxoplasma gondii Dihydrofolate reductase by 50% was determined; […].
A short description of assay [23]: Selectivity index was determined by the ratio for IC50 of rat liver DHFR to the IC50 of Toxoplasma gondii DHFR; Range: 53-113.
In assay [24] the target is T3, Dihydrofolate reductase. Description: Concentration required to inhibit the Mycobacterium avium Dihydrofolate reductase by 50% was determined; Range: 3.6-4.4.
Assay [25] deals with T2, Dihydrofolate reductase. Kind of assay: Concentration required to inhibit the Pneumocystis carinii Dihydrofolate reductase by 50% was determined; Range: 19-29.
A short description of assay [26]: Selectivity index was determined by the ratio for IC50 of rat liver DHFR to the IC50 of Toxoplasma gondii DHFR; Range: 37-48.
Assay [27] is described as follows: Selectivity index was determined by the ratio for IC50 of rat liver DHFR to the IC50 of Pneumocystis carinii DHFR; Range: 12-63.
Assay [28] can be described thus: Selectivity index was determined by the ratio for IC50 of rat liver DHFR to the IC50 of Mycobacterium avium DHFR; Range: 250-330.
In assay [29] the target is T1, Dihydrofolate reductase. Kind of assay: Concentration required to inhibit the rat liver Dihydrofolate reductase by 50% was determined; Range: 1100-1200.
Assay [30] concerns the target T4, Bifunctional dihydrofolate reductase-thymidylate synthase. Description: Concentration required to inhibit the Toxoplasma gondii Dihydrofolate reductase by 50% was determined; Range: 25-30.
The target of assay [31] is T2, Dihydrofolate reductase. The source holds these as a separate data set.
Description: Concentration required to inhibit the Pneumocystis carinii Dihydrofolate reductase by 50% was determined; Range: 0.88-1.2
Assay [32] addresses T1, Dihydrofolate reductase. The source holds these as a separate data set.
Assay [33] deals with T3, Dihydrofolate reductase. The source holds these as a separate data set.
The target in assay [34] is T4, Bifunctional dihydrofolate reductase-thymidylate synthase. The source holds these as a separate data set.
Assay [35] can be described thus: Selectivity index was determined by the ratio for IC50 of rat liver DHFR to the IC50 of Mycobacterium avium DHFR.
Assay [36] deals with T3, Dihydrofolate reductase. Description: Concentration required to inhibit the Mycobacterium avium Dihydrofolate reductase by 50% was determined.
The target in assay [37] is T5, Dihydrofolate reductase (Homo sapiens, UniProt P00374).
T5 sequence (P00374 whole entry): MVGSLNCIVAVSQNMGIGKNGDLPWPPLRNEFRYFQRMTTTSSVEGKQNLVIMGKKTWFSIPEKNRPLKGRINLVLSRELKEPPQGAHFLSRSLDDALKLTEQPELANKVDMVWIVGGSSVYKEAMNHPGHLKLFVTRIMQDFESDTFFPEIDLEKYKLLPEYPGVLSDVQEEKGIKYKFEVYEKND
Description: Concentration required to inhibit the human Dihydrofolate reductase by 50% was determined.

Assay [38] is described as follows: Selectivity index was determined by the ratio for IC50 of rat liver DHFR to the IC50 of Toxoplasma gondii DHFR.
Assay [39] addresses T4, Bifunctional dihydrofolate reductase-thymidylate synthase. Kind of assay: Concentration required to inhibit the Toxoplasma gondii Dihydrofolate reductase by 50% was determined (reported by Hoffman-LaRoche group).
Assay [40] has as its target T5, Dihydrofolate reductase. Description: Concentration required to inhibit the human Dihydrofolate reductase by 50% was determined (reported by Hoffman-LaRoche group).
A short description of assay [41]: Selectivity index was determined by the ratio for IC50 of rat liver DHFR to the IC50 of Toxoplasma gondii DHFR; Range: 12-19.
Assay [42] can be described thus: Selectivity index was determined by the ratio for IC50 of rat liver DHFR to the IC50 of Mycobacterium avium DHFR; Range: 260-370.
For assay [43], the target named is T2, Dihydrofolate reductase. This is another data set of the same source.
Assay [44] has as its target T4, Bifunctional dihydrofolate reductase-thymidylate synthase. Kind of assay: Concentration required to inhibit the Toxoplasma gondii Dihydrofolate reductase by 50% was determined; Range: 23-30.
The target of assay [45] is T3, Dihydrofolate reductase. Kind of assay: Concentration required to inhibit the Mycobacterium avium Dihydrofolate reductase by 50% was determined; Range: 1.2-1.4.
Assay [46] in a line: Selectivity index was determined by the ratio for IC50 of rat liver DHFR to the IC50 of Pneumocystis carinii DHFR; Range: 11-16.
Assay [47] concerns the target T1, Dihydrofolate reductase. Description: Concentration required to inhibit the rat liver Dihydrofolate reductase by 50% was determined; Range: 370-440.
The nature of assay [48]: Selectivity index was determined by the ratio for IC50 of human DHFR to the IC50 of Mycobacterium avium DHFR.
Assay [49] has as its target T1, Dihydrofolate reductase. Description: Concentration required to inhibit the rat liver Dihydrofolate reductase by 50% was determined.
The target in assay [50] is T4, Bifunctional dihydrofolate reductase-thymidylate synthase. Description: Concentration required to inhibit the Toxoplasma gondii Dihydrofolate reductase by 50% was determined.

As a reminder, the IC50 is the concentration that gives 50% inhibition. Consider `Nc1nc(N)c2nc(CN3c4ccccc4C=Cc4cc(OCCCCC(=O)O)ccc43)cnc2n1`, for which the SI in assay [1] is 62; in assay [4] it was 180; in [6] it was 120. Also, the IC50 is 1.3 µM on Dihydrofolate reductase [2], 0.011 µM against Dihydrofolate reductase [3], 0.0072 µM on Dihydrofolate reductase [5] and 0.021 µM in [7].
Turning to `Nc1nc(N)c2nc(CN3c4ccccc4C=Cc4cc(OCC(=O)O)ccc43)cnc2n1`, the IC50 on Dihydrofolate reductase [8] is 0.28 µM; on Dihydrofolate reductase [9], 0.021 µM; on Dihydrofolate reductase [12], 0.0082 µM; in [13], 0.017 µM. The SI in [10] is 16; in assay [11] it was 34; in assay [14] it was 13.
Take `Nc1nc(N)c2nc(CN3c4ccccc4C=Cc4cc(OCCCC(=O)O)ccc43)cnc2n1`: the IC50 on Dihydrofolate reductase [15] came to 0.002 µM; on Dihydrofolate reductase [16], 0.0011 µM; in assay [17], 0.0099 µM; against Dihydrofolate reductase [18], 1.5 µM.
`Nc1nc(N)c2nc(CN3c4ccccc4C=Cc4ccccc43)cnc2n1`: the figures for the half-maximal inhibitory concentration (IC50) (against Dihydrofolate reductase [19]; against Dihydrofolate reductase [20]; in [22]) were 3 µM, 0.079 µM and 0.039 µM, respectively. For the same compound, the SI was determined as 250 in [21] and 77 in [23].
In the case of `Nc1nc(N)c2nc(CN3c4ccccc4C=Cc4cc(OCCC(=O)O)ccc43)cnc2n1`, the IC50 was found to be 0.004 µM against Dihydrofolate reductase [24], 0.024 µM against Dihydrofolate reductase [25], 1.1 µM at Dihydrofolate reductase [29] and 0.028 µM in assay [30]. Besides, the SI worked out at 39 in assay [26], 46 in assay [27] and 280 in assay [28].
With `Nc1nc(N)c2nc(CN3c4ccccc4C=Cc4cc(OCc5ccc(C(=O)O)cc5)ccc43)cnc2n1`, the IC50 on Dihydrofolate reductase [31] stood at 0.001 µM; at Dihydrofolate reductase [32] it was 0.58 µM; against Dihydrofolate reductase [33], 0.00075 µM; in [34], 0.022 µM.
For the compound `CCc1nc(N)nc(N)c1-c1ccc(Cl)c(/N=N/N(CCOC(C)=O)Cc2ccccc2)c1`, the SI in assay [35] was more than 1000. On Dihydrofolate reductase [36], this compound gave an IC50 of less than 0.001 µM.
Turning to `CCOc1cc(Cc2cnc(N)nc2N)cc(OCC)c1-n1cccc1` [EPIROPRIM], the IC50 against Dihydrofolate reductase [37] was found to be 600 µM; in [39] it was 0.9 µM; against Dihydrofolate reductase [36], 0.0041 µM; on Dihydrofolate reductase [40], 600 µM. The SI in assay [38] worked out at 670.
For the compound `Nc1nc(N)c2nc(CN3c4ccccc4C=Cc4cc(O)ccc43)cnc2n1`, the SI in assay [41] was determined as 16; in assay [42] it was 320; in assay [46], 13. The IC50 against Dihydrofolate reductase [43] worked out at 0.031 µM; in [44], 0.026 µM; against Dihydrofolate reductase [45], 0.0013 µM; against Dihydrofolate reductase [47], 0.41 µM.
Turning to `CCCOc1cc(NCc2cnc3nc(N)nc(N)c3c2C)cc(OCCC)c1`, the SI in [48] was determined as 7300. The compound also displayed an IC50 on Dihydrofolate reductase [36] of 0.00019 µM.
With `Nc1nc(N)c2nc(CSc3ccc(Sc4ccccc4)cc3)cnc2n1`, the SI in assay [38] was determined as 320. Besides, the IC50 on Dihydrofolate reductase [49] stood at 250 µM; in [50] it was 0.77 µM.
Turning to `COc1ccc(OC)c(CCc2cnc3nc(N)nc(N)c3c2C)c1`, the SI in assay [38] was 98.

The record behind these values is ChEMBL document CHEMBL1149188, “Synthesis of 2,4-diamino-6-[2'-O-(omega-carboxyalkyl)oxydibenz[b,f]azepin-5-yl]methylpteridines as potent and selective inhibitors of Pneumocystis carinii, Toxoplasma gondii, and Mycobacterium avium dihydrofolate reductase” (J Med Chem, 2004).
